Experimental data reported in patent US5597829A, “Lactone stable formulation of camptothecin and methods for uses thereof” (priority 1994, dated 1997).
Entries after “also recorded” stand apart in the source; their conditions may differ. Read-outs that look alike come from different tables or passages of the source.

How the values were obtained:
[1] = cited from earlier work
[2] = test system: topoisomerase I-cleaved DNA complex; settings: cited from earlier work
L1210 cells = settings: cited from earlier work
[3] = pH below 7.0; cited from earlier work
LD1210 leukemia = settings: 10-100 mg/kg intraperitoneally; cited from earlier work
[4] = Oral absorption / bioavailability; assay type: in vivo; settings: with taurocholic acid or salt in solution dosage composition
From the text: Taurocholic acid, a bile acid, may enhance in the intestinal absorption of the drug in certain patients. […] It is believed that this is due to the formation of a micellar solution of CPT on dilution thereof with the gastric contents.
Analogous to that of etoposide, it is believed that ingestion of the present dosage form of CPT and resulting dilution thereof by the stomach contents, results in the formation of a micellar solution of CPT in the stomach which is readily absorbed by the gastrointestinal tract.

DNA = settings: in vitro cells; cited from earlier work
[5] = cited from earlier work; remark: listed apart in the source
[6] = human, in vivo; cited from earlier work
[7] = Predicted outcome of administering lactone stable CPT to patients; assay type: in vivo, human
From the text: The novel features of the present invention include the following: (1) pharmaceutically acceptable formulations which allow the direct parenteral administration of lactone stable CPT to human subjects with cancer, (2) pharmaceutically acceptable formulations which allow the direct oral administration of lactone stable CPT to human subjects with cancer, and (3) dosages and schedules for the administration of lactone stable CPT to patients with cancer by parenteral and oral routes of administration. […] The inventors predict that by administering the carboxylate species of CPT a higher incidence of renal toxicity is observed than would be observed if the lactone species of CPT were administered.
Inventors claim that reason previous use of sodium CPT caused hemorrhagic cystitis relates to the enhanced renal excretion of the carboxylate form of CPT which when exposed to the lower pH (~pH 5) of the distal convoluted tubule in the kidney, the carboxylate form of CPT is converted to the lactone form of CPT. […] Elimination of CPT by the renal route is enhanced by administration of the carboxylate form and is reduced by administration of the lactone form.

[8] = test system: Topoisomerase I purified from human colon carcinoma cells or calf thymus; settings: cited from earlier work
[9] = cited from earlier work; remark: listed apart in the source
[10] = carboxylate form; cited from earlier work
[11] = 24 hours after, once daily ×5, 6.5-20 mg/m^2 /day; cited from earlier work
[12] = cited from earlier work; remark: listed apart in the source
malignant melanoma = settings: cited from earlier work
[13] = 5-day course (27 patients), 4 wks
[14] = 5-day course (27 patients), 8 wks
[15] = 5-day course (27 patients), 12 wks
[16] = 5-day course, 15 mg/m^2 × 5, 9 treated
[17] = 5-day course, 17 mg/m^2 × 5, 5 treated
[18] = 5-day course, 20 mg/m^2 × 5, 10 treated
[19] = single-dose (34 patients), 3 wks
[20] = single-dose (34 patients), 6 wks
[21] = single-dose (34 patients), 9 wks
[22] = single-dose (34 patients), 12 wks
[23] = single-dose, 110 mg/m^2, 2 treated
[24] = single-dose, 120 mg/m^2, 7 treated
[25] = single-dose, 180 mg/m^2, 9 treated

CC[C@@]1(O)C(=O)OCc2c1cc1n(c2=O)Cc2cc3cc4c(cc3nc2-1)OCO4 [10,11 methylene dioxycamptothecin]
solubility in water [1]: relatively insoluble in water

CC[C@@]1(O)C(=O)OCc2c1cc1n(c2=O)Cc2cc3ccccc3nc2-1 [CPT, camptothecin]
stabilization of the cleavable complex [2]: only the closed lactone form of the drug helps stabilize the cleavable complex | unexplained protein-free breaks (L1210 cells): an increase in unexplained protein-free breaks can be detected | form predominating [3]: closed form of CPT predominates | T/C (treated/control) ratios (LD1210 leukemia): superior T/C (treated/control) ratios relative to mice treated in the same manner with 7-ethyl camptothecin (ECPT) and 10-hydroxy 7-ethyl camptothecin (HECPT); also recorded: inferior to that of CPT-11 administration under the same conditions | absorption following ingestion [4]: improved absorption of the drug following ingestion | nature of DNA strand breaks (DNA): Virtually all of the DNA strand breaks observed in vitro cells treated with CPT are protein linked | investigators' conclusion on toxicity and clinical value ([5]; gastrointestinal cancer): a drug of protean and unpredictable toxicity that has no clinical value | toxicity in clinical trials [6]: unpredictable myelosuppression and hemorrhagic cystitis | renal elimination of CPT ([7]; oral or parenteral, lactone form, expected): minimal | frequency of hemorrhagic cystitis relative to sodium CPT ([7]; predicted): significantly reduced | inhibition of topoisomerase I [8]: inhibited | cystitis as nonhematologic toxic effect ([9]; human, in vivo): Cystitis was another toxic effect occurring frequently | excretion ([9]; human, in vivo): excreted unchanged by the kidneys

CC[C@@](O)(C(=O)O)c1cc2n(c(=O)c1CO)Cc1cc3ccccc3nc1-2 [carboxylate form of CPT]
reduction of antitumor activity [10]: at least 10 fold

sodium salt of camptothecin [CPT sodium]
relation of plasma CPT levels to dose [11]: little relation to the dose given | mean urine recovery of CPT ([12]; first 48 hours, iv): 17.4% | urine recovery of CPT, range ([12]; first 48 hours, iv): 3.6-38.9% | mean urine recovery of CPT excluding the 5 patients with impaired excretion ([12]; iv, 2880 min): 22.8% | sterile hemorrhagic cystitis ([12]; moderately dehydrated patients): 3 patients | Cystitis ([5]; 5-Day Course, P < 0.05): 48 % of 27 Patients | Objective results: Improved [5, 13]: 1 patients | Objective results: Stable [5, 13]: 12 patients | Objective results: Worse [5, 13]: 14 patients | Objective results: Stable [5, 14]: 7 patients | Objective results: Worse [5, 14]: 20 patients | Objective results: Stable [5, 15]: 6 patients | Objective results: Worse [5, 15]: 21 patients | Cystitis, No. of Patients ([5]; 5-day course, 11 mg/m^2 × 5, 2 treated): 1 No. of Patients | Cystitis, No. of Patients [5, 16]: 4 No. of Patients | Diarrhea, No. of Patients [5, 16]: 1 No. of Patients | Cystitis, No. of Patients [5, 17]: 2 No. of Patients | Diarrhea, No. of Patients [5, 17]: 4 No. of Patients | Cystitis, No. of Patients [5, 18]: 6 No. of Patients | Diarrhea, No. of Patients [5, 18]: 4 No. of Patients | Diarrhea, No. of Patients ([5]; 5-day course, 22 mg/m^2 × 5, 1 treated): 1 No. of Patients | Cystitis ([5]; Single Dose): 24 % of 34 Patients | partial objective improvement ([5]; after 2 months (8 or 9 weeks), both large bowel cancer): two | improvement ([5]; at 3 months, 61 patients): none showed improvement | 25%-50% response ([5]; at 3 wks only): 3 patients | persistence of severe diarrhea ([5]; higher doses): ≤ 4 weeks | onset of cystitis ([5]; human, in vivo): 7 to 10 days | Objective results: Improved [5, 19]: 4 patients | Objective results: Stable [5, 19]: 17 patients | Objective results: Worse [5, 19]: 13 patients | Objective results: Improved [5, 20]: 2 patients | Objective results: Stable [5, 20]: 11 patients | Objective results: Worse [5, 20]: 21 patients | Objective results: Improved [5, 21]: 2 patients | Objective results: Stable [5, 21]: 8 patients | Objective results: Worse [5, 21]: 24 patients | Objective results: Stable [5, 22]: 6 patients | Objective results: Worse [5, 22]: 28 patients | Cystitis, No. of Patients ([5]; single-dose, 100 mg/m^2, 6 treated): 2 No. of Patients | Cystitis, No. of Patients [5, 23]: 1 No. of Patients | Diarrhea, No. of Patients [5, 23]: 1 No. of Patients | Cystitis, No. of Patients [5, 24]: 2 No. of Patients | Diarrhea, No. of Patients [5, 24]: 4 No. of Patients | Cystitis, No. of Patients [5, 25]: 3 No. of Patients | Diarrhea, No. of Patients [5, 25]: 2 No. of Patients | toxicity in clinical trials [6]: unpredictable and severe myelosuppression, gastrointestinal toxicity, hemorrhagic cystitis, and alopecia | 50% or greater decrease in tumor diameter (malignant melanoma; 90-360 mg/m^2 every 2 weeks, fifteen patients): None | myelosuppression (malignant melanoma; fifteen patients): 11 patients | toxic effects (malignant melanoma; human, in vivo): nausea and vomiting, alopecia, diarrhea, and hemorrhagic cystitis | less pronounced transient tumor regression (malignant melanoma; no clinical benefit, fifteen patients): three | Bladder toxicity, dose limiting ([9]; doses of 20 to 30 mg/m^2): three | Bladder toxicity, additional patients ([9]; doses of 44 and 30 mg/m^2): two | clinical benefit ([9]; eight patients with measurable disease, 5-day courses): No clinical benefit was observed | cystitis as nonhematologic toxic effect ([9]; human, in vivo): Cystitis was the most prominent nonhematologic toxic effect | major dose-limiting toxic effect ([9]; human, in vivo): Reversible leukopenia | prolonged leukopenia after daily treatment ([9]; total dose of 100 mg/m^2): four | clinical responses ([9]; weekly courses): two
